Laboratory results reported in BindingDB's records for doi:10.1021/acs.jmedchem.6b01065 (2017).

Biological target: T1, Mineralocorticoid receptor (Homo sapiens, UniProt P08235)
T1 sequence (P08235 whole entry): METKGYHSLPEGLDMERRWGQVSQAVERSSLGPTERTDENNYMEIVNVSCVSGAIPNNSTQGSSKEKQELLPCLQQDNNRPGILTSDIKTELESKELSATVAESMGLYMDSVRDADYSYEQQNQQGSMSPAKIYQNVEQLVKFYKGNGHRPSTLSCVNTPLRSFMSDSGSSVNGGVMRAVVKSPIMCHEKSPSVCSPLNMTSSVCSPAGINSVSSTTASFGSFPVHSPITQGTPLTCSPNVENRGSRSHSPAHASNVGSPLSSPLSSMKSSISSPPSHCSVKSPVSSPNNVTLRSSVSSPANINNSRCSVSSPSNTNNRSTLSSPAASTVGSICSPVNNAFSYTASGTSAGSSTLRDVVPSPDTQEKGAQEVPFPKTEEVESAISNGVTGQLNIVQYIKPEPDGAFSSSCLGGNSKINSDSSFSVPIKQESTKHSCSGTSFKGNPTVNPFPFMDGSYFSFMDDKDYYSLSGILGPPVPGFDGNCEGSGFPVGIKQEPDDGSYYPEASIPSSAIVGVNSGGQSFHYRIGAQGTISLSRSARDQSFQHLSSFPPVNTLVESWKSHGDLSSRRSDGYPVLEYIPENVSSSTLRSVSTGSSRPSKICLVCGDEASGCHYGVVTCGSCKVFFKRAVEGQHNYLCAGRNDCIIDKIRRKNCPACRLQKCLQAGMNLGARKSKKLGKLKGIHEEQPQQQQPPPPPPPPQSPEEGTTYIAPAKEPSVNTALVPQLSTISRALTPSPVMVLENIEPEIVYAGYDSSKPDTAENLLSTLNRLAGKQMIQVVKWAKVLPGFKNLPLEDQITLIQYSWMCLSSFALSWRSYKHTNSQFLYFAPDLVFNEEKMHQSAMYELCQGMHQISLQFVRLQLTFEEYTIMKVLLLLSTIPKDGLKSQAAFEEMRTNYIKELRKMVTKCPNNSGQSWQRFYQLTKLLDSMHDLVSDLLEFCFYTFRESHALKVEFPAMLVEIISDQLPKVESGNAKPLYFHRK
Experiment: Antagonist activity at Gal4-fused human MR LBD (671 to 984 residues) expressed in African Green Monkey CV-1 cells assessed as inhibition of aldosterone-induced transactivation activity after 20 hrs by luciferase reporter gene assay

SMILES: Cc1c(C(=O)Nc2ccc(S(C)(=O)=O)cc2)cc(CCO)n1-c1ccc(Cl)cc1C(F)(F)F
- IC50: 3.7 nM
